Patent publication US8653271B2 (priority 2006, dated 2014)
≈ marks a conversion by molar mass, not a printed value.

Key:
[1] = humans; cited from earlier work
[2] = human skin, values obtained from Kiptoo et al., cited from earlier work
[3] = Differential scanning calorimetry; type: physicochemical
[4] = saturated solution in light mineral oil, human skin, 32° C., 48 h; codrug in 6-β-naltrexol equivalents
Method: Human skin harvested during abdominal reduction surgery was used for the diffusion studies. Skin sections were obtained by using a Padgett dermatome set to 250 μm; these sections were stored at −20° C. Stored skin samples were thawed to room temperature at the time of the experiment. A PermeGear flow-through (In-Line, Riegelsville, Pa., USA) diffusion cell system was used for the skin permeation studies. Skin surface temperature was maintained at 32° C. with a circulating water bath. Data was collected by using human skin from a single donor with three cells of 6-β-naltrexol and four cells CB-NTXOL-BUPOH. Because of normal human skin inter-subject permeation variability, the codrug was compared against 6-β-naltrexol permeation within each individual skin sample. These studies were repeated three times with skin from different human subject donors. The receiver solution was HEPES-buffered Hanks' balanced salt solution pH 7.4 set at a flow rate of 1.1 ml/h. […] A saturated solution of 6-β-naltrexol or CB-NTXOL-BUPOH in light mineral oil was applied to the skin in order to maintain a maximum and constant thermodynamic activity of the drug. Each cell was charged with 0.25 ml of the respective drug solution. […] All samples were immediately processed by solid phase extraction, evaporated under nitrogen, reconstituted, and analyzed for drug content by HPLC. The human tissue use was approved by the University of Kentucky Institutional Review Board.
Cumulative quantity of drug collected in the receiver compartment was plotted as a function of time. The flux value for a given experiment was obtained from the slope of the steady-state portion of the cumulative amount of drug permeated vs. time plot. Apparent permeability coefficient values were computed from Fick's First Law of diffusion:
Sink conditions were maintained in the receiver throughout the experiment, so ΔC was approximated by the drug concentration (solubility in this case) in the donor compartment.
The skin tissue was rinsed with filtered water and blotted with a paper towel. The tissue was tape-stripped twice to remove surface formulation. The area of skin with drug contact was cut out, chopped into tiny pieces, and placed in a pre-weighed vial. The vial was weighed to calculate the mass of the skin. Ten milliliters of acetonitrile was added to each vial, the vials vortexed, sonicated for 10 min, and placed in a shaker overnight. The following day, a 1 ml sample was obtained from the vials and placed in autosampler vials for analysis. […] Flux values and skin concentrations for each of the drugs were reported as mean±S.D and were statistically compared using a paired Student's t-test. Flux enhancement as well as drug disposition in the skin were considered significant at p<0.05.

[5] = Table 4; values obtained from Kiptoo et al.; cited from earlier work
physchem = type: physicochemical; settings: thermodynamic from solid
Method: The solubilities of CB-NTXOL-BUPOH, hydroxybupropion, and 6-β-naltrexol were determined by adding excess quantity of drug to mineral oil or pre-warmed HEPES-buffered Hanks' salt solution pH 7.4 at 32° C. (skin surface temperature), with equilibration while shaking in a water bath at 60 rpm. Weighing 4 mg of each of the drugs and placing them in 1 ml of each of the respective solvents was enough to ensure that there was excess drug in solution. Samples were drawn into a pre-warmed glass syringe, filtered through a syringe filter (Mineral oil: Millex FG-13, Millipore, Billerica, Mass., USA, and buffer: nylon filter, Gelman, East Hills, N.Y., USA), and measured with respect to volume and diluted with an appropriate volume of acetonitrile or buffer. The drug from the buffer samples was immediately extracted by solid phase extraction as described above. Drugs in mineral oil were diluted with a hundred-fold volume of acetonitrile and extraction recoveries were >95% for all the drugs. The sampling procedure was done in triplicate, discarding the first 40% of the initial filtrate. […]. For buffer solubilities, samples were taken after 30 min of sonication (to minimize the hydrolysis of the codrug). No significant difference was found between 30 min sonication solubility measurements and equilibrium solubility measurements taken after 48 h for 6-β-naltrexol.

[6] = Plasma hydrolysis of the carbonate codrug; type: in vitro ADME, guinea pig; settings: guinea pig plasma in vitro at 37° C.
Method: Guinea pig plasma, which was stored at −20° C., was thawed to room temperature. Known and sub-saturated amounts of the codrug (50 nmol) were added to approximately 2.0 ml of the guinea pig plasma and vortexed. Two-hundred μl aliquots of the spiked plasma were distributed into sealed vials, and incubated at 37° C. Samples were withdrawn at predetermined time intervals; 0, 0.5, 1, 2, 4, 6, 9, 24, 30, and 48 h. 500 μl of ACN was added to each sample to precipitate plasma protein. Each sample was vortexed and centrifuged at 10,000×g for 15 min. The supernatant was separated and evaporated under nitrogen at room temperature, and the residue was reconstituted with ACN for high-pressure liquid chromatography (HPLC) analysis. A standard curve was prepared from drug-spiked plasma samples processed by the same method. The amounts of the codrug remaining or parent drugs released were plotted against time. These hydrolytic profiles were fit to previously developed mathematical models using nonlinear least-squares regression analysis ([…]®, Micromath Inc., Salt Lake City, Utah) as described by the equations below: […]

[7] = type: physicochemical
Method: Equal amounts of the each of the codrug were distributed into labeled test-tubes (20 nmol in each tube). Care was taken to ensure that the entire codrug was dissolved and the solution remained clear. Hydrolysis of the carbonate codrug (˜20 nmol) was conducted in isotonic phosphate buffer pH 7.4 at 32° C. in a water-bath with continuous stirring. […] Samples were collected at predetermined time intervals and stored in the freezer at −20° C. until analyzed. All experiments were conducted in triplicate. An aliquot part (250 μL) of hydrolysis solutions was mixed with 750 μL of acetonitrile, vortexed for 30s, and analyzed by HPLC for the presence of codrug and the two corresponding parent drugs, as well as for the intermediate hydrolysis product, 23. […] A Brownlee C18 reversed-phase Spheri-5 μm column (220×4.6 mm) connected to a C18 reversed-phase guard column (15×3.2 mm) was utilized and detection of solutes was carried out at 215 nm. The mobile phase consisted of a mixture of acetonitrile: 0.1% trifluoroacetic acid adjusted to pH 3.0 with triethylamine (50:50, v/v). The mobile phase flow rate was 1.5 mL/min and 100 μL of hydrolysis sample was injected onto the column.

In the case of `O=C1CC[C@@]2(O)[C@H]3Cc4ccc(O)c5c4[C@@]2(CCN3CC2CC2)[C@H]1O5` [Compound 1, Naltrexone], the oral bioavailability [1] is given as 5-40%.

In the case of `CC1NC(C)(C)COC1(O)c1cccc(Cl)c1` (racemic) [Compound 4, (+/−)-2-(3-chlorophenyl)-3,5,5-trimethyl-2-morpholinol], the In vitro flux ([2]; codrug as NTXOL equivalent flux) is listed as 25.89 ± 6.01 nmol cm^−2 h^−1, the “In vitro lag time” value [2] is listed as 7.83 ± 1.73 h and the “Mean activity of solid @ T = 25° C., a2” value ([3]; calculated from melting point and heat of fusion) is listed as 0.34. The “Heat of fusion, ΔHf” value ([3]; ±s.d., n = 3) was 10.8 ± 0.05 kJ/mol, the “Flux from mineral oil” value [4] was 25.89 nmol cm^−2 h^−1 and the “Light mineral oil solubility” value [5] was 4.04 ± 0.04 mM. For the same compound, the solubility at 30 min (physchem; aqueous buffer, pH 7.4, 32° C., 30 min sonication, read-out: Hanks' buffer solubility) was 3.85 mM (≈ 985 µg/mL), the solubility at 48 h (physchem; oil or lipid, 32° C., 48 h equilibration (Table 3), read-out: Light mineral oil solubility) was 4.04 mM (≈ 1030 µg/mL) and the “Guinea pig plasma half-life” value [6] was “stable”.

With `Cc1c(-c2cccc(Cl)c2)oc(=O)n1C(C)(C)COC(=O)Oc1ccc2c3c1OC1C(=O)CCC4(O)C(C2)N(CC2CC2)CCC314` (stereo not drawn) [Compound 25] the “first-order rate constant k3” value ([7]; generation of BUPOH from codrug 25, isotonic phosphate buffer pH 7.4) was 0.0483 h⁻¹ and the “first-order rate constant k1” value ([7]; hydrolysis at carbonate linker generating NTX (25) or NTXOL (26), isotonic phosphate buffer pH 7.4, 32° C.) was 0.0179 h⁻¹.
